Experimental data as given in ChEMBL document CHEMBL1201862, “PubChem BioAssay data set” (2004).
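Assay format: 96-well plates, 48-hour exposure. The concentration for 50% growth inhibition is given as GI50.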 Active and inactive are the calls of the source. Rule as the data show it: active = GI50 up to about 1.1 µM and inactive = higher.

Columns and labels:
Test in all cases: inhibition of tumour cell growth, NCI panel, 48 h
[1] = tested on: LXFL 529
[2] = tested on: RXF 631
[3] = tested on: KM-20L2
[4] = tested on: XF498
[5] = tested on: DMS-273
[6] = tested on: SNB-78
[7] = tested on: DLD-1
[8] = tested on: HOP-18
[9] = tested on: DMS-114

SMILES	GI50 [1]	GI50 [2]	GI50 [3]	GI50 [4]	GI50 [5]	GI50 [6]	GI50 [7]	GI50 [8]	GI50 [9]
COc1ccc2oc(-c3cc4cc(OC)ccc4o3)cc2c1	> 100 µM (inactive)	> 100 µM (inactive)	> 100 µM (inactive)	> 100 µM (inactive)	> 100 µM (inactive)	> 100 µM (inactive)	> 100 µM (inactive)	–	–
CC(=O)OC1COC(N2C(=O)C(=O)c3cc(Br)c([N+](=O)[O-])cc32)C(OC(C)=O)C1OC(C)=O (stereo not given)	50.8 µM (inactive)	48.5 µM (inactive)	> 100 µM (inactive)	35.9 µM (inactive)	> 100 µM (inactive)	> 100 µM (inactive)	34.4 µM (inactive)	> 100 µM (inactive)	24.7 µM (inactive)
CCN(CC)c1ccc(/N=N/c2ccc([N+](=O)[O-])cc2OC(=O)/C=C/c2ccccc2)c(OC(=O)/C=C/c2ccccc2)c1	21.5 µM (inactive)	> 100 µM (inactive)	–	6.82 µM (inactive)	5.5 µM (inactive)	> 100 µM (inactive)	4.18 µM (inactive)	1.7 µM (inactive)	3.49 µM (inactive)
O=c1cccccc1NCCCNc1cccccc1=O	> 100 µM (inactive)	31 µM (inactive)	> 100 µM (inactive)	> 100 µM (inactive)	> 100 µM (inactive)	> 100 µM (inactive)	–	–	> 100 µM (inactive)
COc1ccc(-c2cc(=O)c3ccccc3o2)cc1N	35.7 µM (inactive)	42.3 µM (inactive)	34.1 µM (inactive)	18.2 µM (inactive)	41.3 µM (inactive)	68.4 µM (inactive)	–	17.7 µM (inactive)	34 µM (inactive)
CCCC(=O)OC[n+]1ccc2c(C)c3[nH]c4ccc(OC)cc4c3c(C)c2c1	0.498 µM (active)	–	0.226 µM (active)	–	0.0586 µM (active)	0.594 µM (active)	0.196 µM (active)	–	0.47 µM (active)
CCc1ccccc1NC(=O)/C(CC(=O)c1c(C)[n+]([O-])c2ccccc2[n+]1[O-])=N\NS(=O)(=O)c1ccc(C)cc1	26.3 µM (inactive)	> 100 µM (inactive)	> 100 µM (inactive)	–	35.4 µM (inactive)	33.7 µM (inactive)	24 µM (inactive)	–	12.3 µM (inactive)
CC(=O)OC(=O)O/C=C\CCl	> 100 µM (inactive)	> 100 µM (inactive)	> 100 µM (inactive)	–	62.8 µM (inactive)	> 100 µM (inactive)	> 100 µM (inactive)	> 100 µM (inactive)	> 100 µM (inactive)
Cc1ccc(NC(=O)CCc2nnc3s/c(=C\c4cccc([N+](=O)[O-])c4)c(=O)n23)cc1	> 100 µM (inactive)	60 µM (inactive)	> 100 µM (inactive)	> 100 µM (inactive)	> 100 µM (inactive)	> 100 µM (inactive)	> 100 µM (inactive)	> 100 µM (inactive)	> 100 µM (inactive)
C[n+]1cccc(NC(=O)c2ccc(NC(=O)C34CCC(C(=O)Nc5ccc(C(=O)Nc6ccc[n+](C)c6)cc5)(CC3)CC4)cc2)c1	2.81 µM (inactive)	–	> 100 µM (inactive)	–	6.82 µM (inactive)	> 100 µM (inactive)	10.9 µM (inactive)	25.2 µM (inactive)	13.8 µM (inactive)
Cc1ccc(NC(=O)c2cccc([N+](=O)[O-])c2O)c([N+](=O)[O-])c1	13 µM (inactive)	12.3 µM (inactive)	18.7 µM (inactive)	20.8 µM (inactive)	11.7 µM (inactive)	19.4 µM (inactive)	14.9 µM (inactive)	19.2 µM (inactive)	12.6 µM (inactive)
